Structure (SMILES)	melting point
CCOC(=O)C(Cl)Cc1cc(-n2nc(C)n(C(F)F)c2=O)c(F)cc1Cl (stereo not given)	-22.1 °C
O=c1c2c(oc3c1CCCC3)CCCC2	130 °C
CNc1c(F)c(F)c(-c2c(F)c(F)c(F)c(F)c2F)c(F)c1F	72 °C
CN1CCN(c2ccccc2N)CC1	101 to 102 °C
Cc1cc(I)cc(C)c1O	99 to 102 °C
Cc1cc(I)cnc1NC(=O)C(C)(C)C	143 °C
COC(=O)c1cc(C(=O)O)cc([N+](=O)[O-])c1	183 °C
CCCOCCO	-70 °C
CC1CCC2C(C)(C)C3CC12CCC3(C)O (stereo not given)	86 °C
C[Si](C)(C)C1=CC2CCCCC2C1=O (stereo not given)	59 °C
CC12CCC3C(C(=O)CC4CC(O)(C(Cl)(Cl)Cl)CCC43C)C1CCC2=O (stereo not given)	248 to 254 °C
CCCCCCCC(=O)OCCC	-46.2 °C
CS(=O)(=O)c1cc(C(F)(F)F)ccc1C(=O)c1cnoc1C1CC1	140 °C
CC1=CC[C@@H]2[C@@H]3CCC4CC(=O)CC[C@]4(C)[C@H]3CC[C@]12C (stereo not given in full)	140 to 141 °C
Cc1nn(C)c(C(=O)O)c1Br	225 to 226 °C
O=C(Cl)CCl	-22 °C
CC1CCCC1=O (stereo not given)	-75 °C
O=C1CSC(c2cccs2)C1 (stereo not given)	55 to 58 °C
COC(=O)c1ccc(I)cc1O	69 °C
CC12CCC3C(CCC4CC(O)(C#CCl)CCC43C)C1CCC2O (stereo not given)	120 °C

Structure (SMILES)	melting point
Cc1c(Cl)cc(F)cc1S(N)(=O)=O	118 to 120 °C
CSCCC(N)C(=O)O (stereo not given)	281 °C
C1CCC2(CC1)OCC(C1OC3(CCCCC3)OC1C1COC3(CCCCC3)O1)O2 (stereo not given)	82 to 84 °C
Cc1cccc2c1sc1c(C)cccc12	147 to 153 °C
O=C(O)c1ccc(Br)c([N+](=O)[O-])c1	204 °C
COCC(C)c1c(O)c2c(c(OC)c1OC)C1(C)CCCC(C)(C)C1C(=O)C2=O (stereo not given)	90 to 92 °C
NC(=O)c1c(F)ccc(F)c1F	117 °C
O=C1NC(=O)C(=NNc2ccc(Cl)cc2)C(=O)N1	353 °C
CCCCCCCCCC(O)CC (stereo not given)	25 °C
Cc1nc(C)c(C)nc1C	85 °C
CC[C@@H]1CCC[C@H]1CC (relative stereo)	-95 °C
NC(CSc1ccccn1)=NO	100 °C
CC(C)(C)c1cc2c(O)c(c1)Cc1cc(C(C)(C)C)cc(c1O)Cc1cc(C(C)(C)C)cc(c1O)Cc1cc(C(C)(C)C)cc(c1O)C2	300 °C
CN(C)C(=O)OC1=CC(=O)CC(C)(C)C1	45.5 °C
NC(=O)CCC(=O)O	155 °C
Clc1ncccc1I	95 °C
O=C(O)c1cc(Cl)c(Cl)cc1Cl	166 °C
OC1CSC(O)CS1 (stereo not given)	108 to 145 °C
Cc1c(C)c(C)c(C#N)c(C)c1C	159 °C
O=Cc1cc(C=O)c(O)c(C=O)c1	179 to 180 °C

Structure (SMILES)	melting point
N#CC(=CN1CCOCC1)C(N)=O	173 to 177 °C
FC(F)(Cl)C(F)(Cl)Cl	-35 °C
O=S(=O)(Cl)c1ccc(Br)c(Br)c1	34 °C
O=C1C=CC(=O)c2ccccc21	128 °C
CCOC(=O)C(C#N)=C(SC)Sc1ncccn1	103 to 105 °C
CCOC(=O)C(O)C(O)C(=O)OCC (stereo not given)	17 °C
C=C(F)C(=O)O	51.5 to 52 °C
CCCCCCCC1CCCC1	-53 °C
Clc1cccnc1Br	60 °C
CCCCCCCCCCCCCCCCCCCCCCCCCCCCCC[Si](Cl)(Cl)Cl	60 to 80 °C
O=S(=O)(Cl)c1ccc2nsnc2c1	69 to 74 °C
O=[N+]([O-])c1ccc2c(c1)=[N+]([O-])C1(CCCC1)[N+]=2[O-]	148 to 150 °C
CCCCCCCCC=CCCCCCCCCOC(=O)OC1CCC2(C)C(=CCC3C2CCC2(C)C(C(C)CCCC(C)C)CCC32)C1 (stereo not given)	20 °C
C#CC1(O)CCC2(C)C(CCC3C2CCC2(C)C(OC(C)=O)CCC32)C1 (stereo not given)	196 °C
CC1=NCCN1	107 °C
COCCN(C(=O)CCl)c1c(C)cccc1C	46.3 °C
O=P(Oc1ccccc1)(Oc1ccccc1)Oc1noc2ccccc12	64 to 68 °C
NC(=S)NCCN1CCCCC1	107 to 110 °C
O=C(O)C=Cc1cccc(C=CC(=O)O)c1	280 °C

More lines, now with the values ahead:

melting point	Structure (SMILES)
105 °C	CN(CCO)c1nc2c(c(=O)n(C)c(=O)n2C)n1C
254 °C	O=C1OC(=O)C2=C1Cc1cc3c(cc1C2)CC3
143 °C	CCC(C(N)=O)n1nnc2ccccc21 (stereo not given)
163 °C	Cc1ccc(C)c2c1C(=O)N(C)C2O (stereo not given)
156 °C	COc1ccccc1NC(N)=S
185 °C	Cc1ccc(S(=O)(=O)c2coc(S(N)(=O)=O)c2)cc1
35 °C	Fc1ccc(Br)c2ccccc12
143 to 146 °C	Cc1cccc(C(N)=NO)c1
173 °C	c1ccc(C2Nc3ccccc3C2c2ccccc2)cc1 (stereo not given)
137 °C	O=c1cc(-c2ccccc2)cc(-c2ccccc2)o1
156 °C	O=C(O)c1ccc2c(c1)CCCC2
301 to 302 °C	O=C(Nc1ccccc1NC(=O)c1ccccc1)c1ccccc1
< -20 °C	CCOc1ccc2c(c1)C(C)=CC(C)(C)N2
205 °C	NC(=S)NN=C1C2CCCC1C1(O)CCCCC1C2c1ccccc1 (stereo not given)
131 °C	O=c1c(=O)c2ccccc12
248 to 254 °C	O=C(O)c1ccc2cc[nH]c2c1
95 to 98 °C	O=C1CCCN1c1ccc(Cl)cc1
151 °C	Brc1cccc2cc(C=NNc3ccccc3)ccc12
183 °C	Cc1cc(Br)ccc1C(=O)O
44 to 47 °C	CCOC(=O)c1sc(C)nc1-c1ccccc1
217 °C	Oc1ccccc1C1Nn2c(COc3ccccc3)nnc2S1 (stereo not given)
31 to 34 °C	CN(C(=S)Cl)c1ccccc1
< 20 °C	Brc1cccc(Oc2ccc(Br)c(Br)c2)c1
45.5 °C	CC1CCC(C(C)C)C(OC(=O)C(=O)C=Cc2ccccc2)C1 (stereo not given)

melting point	Structure (SMILES)
165 to 167 °C	O=C(NCCCCc1ccccc1)c1cc([N+](=O)[O-])cc([N+](=O)[O-])c1
231 to 233 °C	CCN1C(=O)C(=Cc2coc3ccc(Cl)cc3c2=O)SC1=S
93 to 97 °C	O=[N+]([O-])c1ccc(C(O)C(O)CO)cc1 (stereo not given)
155 to 156 °C	Cc1nc(-c2ccc(C(F)(F)F)cc2)sc1C#N
158 to 159 °C	NC(=S)Nc1ccccc1C(F)(F)F
148 °C	O=C(O)CCC(=O)Nc1ccccc1
80 to 88 °C	N#CCCN(CCC#N)c1ccccc1
176 °C	CSc1cc2c(c3c1CCOc1ccccc1-3)c(=O)n(-c1ccccc1)n2C
195 °C	O=[N+]([O-])c1ccccc1OC1OC(CO)C(O)C(O)C1O (stereo not given)
148 to 150 °C	O=C(O)C1CC(=O)N(CCc2ccc(Cl)cc2)C1 (stereo not given)
58 °C	c1ccc(Cc2ccc3ccccc3c2)cc1
28 °C	N#CCC(=O)OCc1ccccc1
142 to 144 °C	O=C(Cc1ccccc1)c1cc2c(cc1Br)OCCO2
255 °C	N#C/C(=N\Nc1ccc(O)cc1)c1nc2ccccc2[nH]1
207 to 208 °C	CCOC(=O)C(C(C)=O)C(=O)/C=C/c1ccc(OC)c(OCc2ccccc2)c1 (stereo not given)
74 °C	CC(=O)Oc1ccc(N)cc1
56 °C	Cc1ccc([Si](C)(C)c2ccccc2CO)cc1
61 to 63 °C	O=C1CCc2ccc(F)cc21
223 to 225 °C	NNC(=O)CCc1ccc(O)cc1
197 °C	O=C(Oc1ccc(Cl)cc1)c1ccc(C(=O)Oc2ccc(Cl)cc2)cc1
273 °C	O=C(O)c1ccccc1C(=O)Nc1ccc(S(=O)(=O)N=c2[nH]ccs2)cc1
185 °C	Oc1c(-c2ccccn2)n(N2CCCCC2)c2ccccc12
223 to 227 °C	NC(CCc1ccccc1)CC(=O)O (stereo not given)
225 °C	C/C(=N/Nc1ccccc1)C1=Cc2ccccc2C1

melting point	Structure (SMILES)
146 °C	O=C(N[C@H](Cc1cccc(Br)c1)C(=O)O)OCC1c2ccccc2-c2ccccc21
149 to 154 °C	CC(=O)Nc1ccc(S)cc1
16 °C	CCCCCCCCCCCCCCc1ccccc1
89 to 90 °C	Cc1nn(-c2ccccc2)nc1C(=O)N1CCCC1
208 °C	N=C1NC(=O)C(=NNc2cccc([N+](=O)[O-])c2)S1
213 to 214 °C	O=C1OC(=O)C2=C1SCCS2
95 to 96 °C	O=Cc1ccc(OC2CCOCC2)cc1
80 to 82 °C	N#Cc1ccc(Cn2cccn2)cc1
176 °C	COc1nccnc1NS(=O)(=O)c1ccc(N)cc1
143 to 146 °C	Brc1ccc(-c2ccc(Br)s2)s1
177 °C	O=C1/C(=N/Nc2ccncc2)C(C(F)(F)F)=NN1c1ccccc1
43.4 °C	CCN(CC)CCC1(c2ccccc2)C(=O)Oc2ccccc21 (stereo not given)
194 to 196 °C	COc1ccc2c(c1)CCc1c-2[nH]c2ccc(OC)cc12
108 °C	CC1COc2ccccc2N1C(=O)C(Cl)Cl (stereo not given)
44 °C	CC(C)(Cc1ccc(F)cc1)N=Cc1ccccc1
7 °C	BrC=Cc1ccccc1
233 to 234 °C	Nc1ccc(O)cc1C(=O)O
258 °C	c1ccc2c(c1)ccc1c3ccccc3ccc21
117 to 118 °C	Cc1nc2ccccn2c1C=O
114 °C	COC(CCNC1=CC(=O)c2ccccc2C1=O)OC
168 °C	NC(=O)c1cc(C(=O)CN(Cc2ccccc2)Cc2ccccc2)ccc1O
132 to 139 °C	CCOC(=O)C1=C(C)NC(C)=C(C(=O)OCC)C1C
199 °C	CC(=O)Nc1ccc(N(Nc2ccccc2)C(C)=O)cc1

From a melting point compilation (Tetko et al.)
